In general, solubility refers to how much of the substance goes into solution per volume. The low end stands for a poorly soluble substance, the high end for a readily soluble substance.

solubility, E max and lambda max data for five compounds are collected here from patent US5281263A, “Azo dyes containing a carboxy group” (Imperial Chemical Industries PLC, priority 1991, dated 1994).

Molecules are shown by their SMILES. Converted amounts (≈) assume the structure as drawn.

Series [1] is described as follows: solubility of the dye in water. The format is physicochemical.
Series [2] is described as follows: absorption of the dye: lambda max and E max. In kind it is physicochemical.

`O=C(O)c1ccc(Nc2ccc3cc(S(=O)(=O)O)c(N=Nc4ccc(N=Nc5cccc(C(=O)O)c5)c5ccccc45)c(O)c3c2)cc1` [Example 1]: the solubility in series [1] (25° C., pH 9.5) was around 80 mg/mL (≈ 121 mM). Moreover, in series [2], the E max result is “about 24,500” and the lambda max came out at 558 nm.

In series [1] (25° C.), `O=C(O)c1ccc(N=Nc2ccc(N=Nc3c(S(=O)(=O)O)cc4ccc(Nc5ccc(C(=O)O)cc5)cc4c3O)c3ccccc23)cc1` [Example 2] returned a solubility of around 80 mg/mL (≈ 121 mM). For the same compound, in series [2], the E max result is given as “about 22,000” and the lambda max turned out to be 567 nm.

`O=C(O)c1ccc(N=Nc2ccc(N=Nc3c(S(=O)(=O)O)cc4ccc(Nc5cccc(C(=O)O)c5)cc4c3O)c3ccccc23)cc1` [Example 3] came in with a solubility in series [1] (temperature and pH not given) of around 80 mg/mL (≈ 121 mM). In addition, in series [2], the E max result is reported as “about 23,500” and the lambda max was 553 nm.

Compound `O=C(O)c1ccc(Nc2ccc3cc(S(=O)(=O)O)c(N=Nc4ccc(N=Nc5cccc(C(=O)O)c5)c5ccc(S(=O)(=O)O)cc45)c(O)c3c2)cc1` [Example 4] yielded a solubility in series [1] (25° C., pH 8.5) of 130 to 150 mg/mL (≈ 175 to 202 mM). In series [2], the E max result was “about 24,000” and the lambda max worked out at 588 nm.

In turn, `O=C(O)c1cccc(N=Nc2ccc(N=Nc3c(S(=O)(=O)O)cc4ccc(Nc5cccc(C(=O)O)c5)cc4c3O)c3cc(S(=O)(=O)O)ccc23)c1` [Example 6] yielded a solubility in series [1] (temperature and pH not given) of around 100 mg/mL (≈ 135 mM). Besides, in series [2], the E max result was “about 15,000” and the lambda max is given as 578 nm.
